{
  "source": "the supplement of paper PMC10307832",
  "assay_in_all_cases": "relative viability (nuclei count vs DMSO), 5 days (fraction); higher = more cells survive",
  "key": {"[1]": {"compound": "CCN1CCC(CC1)N2C=C(N=N2)CNC3=CC4=C(C(=CN=C4C(=C3)Cl)C#N)NC5=CC(=C(C=C5)F)Cl [KIN001-266] + CCNC(=O)c1noc(-c2cc(C(C)C)c(O)cc2O)c1-c1ccc(CN2CCOCC2)cc1 [Luminespib] (partner 0.01 µM)", "procedure,_shortened": "(§1)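 For relative viability, nuclei counts in treated wells were divided by those in vehicle wells. Lung cancer cell lines had been pin-tool dosed in 1536-well plates the day after seeding and cultured for 5 days, then fixed and stained in one step (final 0.05% Triton X-100, 1% formaldehyde, 1 ug/ml Hoechst) and imaged at 4×. Doses were one drug alone or a fixed anchor-drug dose plus five library-drug doses (not always all listed) in √10 steps, and values are duplicate-plate medians.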"}, "[2]": {"compound": "CCN1CCC(CC1)N2C=C(N=N2)CNC3=CC4=C(C(=CN=C4C(=C3)Cl)C#N)NC5=CC(=C(C=C5)F)Cl [KIN001-266] + Cc1nc(Nc2ncc(C(=O)Nc3c(C)cccc3Cl)s2)cc(N2CCN(CCO)CC2)n1 [Dasatinib] (partner 0.075 µM)", "procedure,_shortened": "as §1"}, "[3]": {"compound": "CCN1CCC(CC1)N2C=C(N=N2)CNC3=CC4=C(C(=CN=C4C(=C3)Cl)C#N)NC5=CC(=C(C=C5)F)Cl [KIN001-266] + CC(C)C[C@H](NC(=O)[C@H](Cc1ccccc1)NC(=O)c1cnccn1)B(O)O [Bortezomib] (partner 0.002 µM)", "procedure,_shortened": "as §1"}, "[4]": {"compound": "CCN1CCC(CC1)N2C=C(N=N2)CNC3=CC4=C(C(=CN=C4C(=C3)Cl)C#N)NC5=CC(=C(C=C5)F)Cl [KIN001-266] + CC1(C)CCC(c2ccc(Cl)cc2)=C(CN2CCN(c3ccc(C(=O)NS(=O)(=O)c4ccc(N[C@H](CCN5CCOCC5)CSc5ccccc5)c(S(=O)(=O)C(F)(F)F)c4)cc3)CC2)C1 [Navitoclax] (partner 0.5 µM)", "procedure,_shortened": "as §1"}},
  "data": [
    {"cell line": "NCI-H1792", "values": [
      {"measurement": "relative viability", "setting": "[1]; first compound 0.08 µM", "value": 0.414},
      {"measurement": "relative viability", "setting": "[1]; first compound 0.253 µM", "value": 0.381},
      {"measurement": "relative viability", "setting": "[1]; first compound 0.8 µM", "value": 0.403},
      {"measurement": "relative viability", "setting": "[1]; first compound 2.53 µM", "value": 0.628},
      {"measurement": "relative viability", "setting": "[1]; first compound 8 µM", "value": 0.486},
      {"measurement": "relative viability", "setting": "[2]; first compound 0.08 µM", "value": 0.771},
      {"measurement": "relative viability", "setting": "[2]; first compound 0.253 µM", "value": 0.787},
      {"measurement": "relative viability", "setting": "[2]; first compound 0.8 µM", "value": 0.753},
      {"measurement": "relative viability", "setting": "[2]; first compound 2.53 µM", "value": 0.762},
      {"measurement": "relative viability", "setting": "[2]; first compound 8 µM", "value": 0.906},
      {"measurement": "relative viability", "setting": "[3]; first compound 0.08 µM", "value": 0.962},
      {"measurement": "relative viability", "setting": "[3]; first compound 0.253 µM", "value": 0.927},
      {"measurement": "relative viability", "setting": "[3]; first compound 0.8 µM", "value": 0.879},
      {"measurement": "relative viability", "setting": "[3]; first compound 2.53 µM", "value": 0.917},
      {"measurement": "relative viability", "setting": "[3]; first compound 8 µM", "value": 0.948},
      {"measurement": "relative viability", "setting": "[4]; first compound 0.08 µM", "value": 0.601},
      {"measurement": "relative viability", "setting": "[4]; first compound 0.253 µM", "value": 0.627},
      {"measurement": "relative viability", "setting": "[4]; first compound 0.8 µM", "value": 0.581},
      {"measurement": "relative viability", "setting": "[4]; first compound 2.53 µM", "value": 0.652},
      {"measurement": "relative viability", "setting": "[4]; first compound 8 µM", "value": 0.661}
    ]},
    {"cell line": "NCI-H1915", "values": [
      {"measurement": "relative viability", "setting": "[1]; first compound 0.08 µM", "value": 0.827},
      {"measurement": "relative viability", "setting": "[1]; first compound 0.253 µM", "value": 0.684},
      {"measurement": "relative viability", "setting": "[1]; first compound 0.8 µM", "value": 0.791},
      {"measurement": "relative viability", "setting": "[1]; first compound 2.53 µM", "value": 0.79},
      {"measurement": "relative viability", "setting": "[1]; first compound 8 µM", "value": 0.783},
      {"measurement": "relative viability", "setting": "[2]; first compound 0.08 µM", "value": 0.369},
      {"measurement": "relative viability", "setting": "[2]; first compound 0.253 µM", "value": 0.316},
      {"measurement": "relative viability", "setting": "[2]; first compound 0.8 µM", "value": 0.357},
      {"measurement": "relative viability", "setting": "[2]; first compound 2.53 µM", "value": 0.396},
      {"measurement": "relative viability", "setting": "[2]; first compound 8 µM", "value": 0.292},
      {"measurement": "relative viability", "setting": "[3]; first compound 0.08 µM", "value": 0.979},
      {"measurement": "relative viability", "setting": "[3]; first compound 0.253 µM", "value": 0.986},
      {"measurement": "relative viability", "setting": "[3]; first compound 0.8 µM", "value": 0.997},
      {"measurement": "relative viability", "setting": "[3]; first compound 2.53 µM", "value": 0.877},
      {"measurement": "relative viability", "setting": "[3]; first compound 8 µM", "value": 0.898},
      {"measurement": "relative viability", "setting": "[4]; first compound 0.08 µM", "value": 0.766},
      {"measurement": "relative viability", "setting": "[4]; first compound 0.253 µM", "value": 0.79},
      {"measurement": "relative viability", "setting": "[4]; first compound 0.8 µM", "value": 0.74},
      {"measurement": "relative viability", "setting": "[4]; first compound 2.53 µM", "value": 0.758},
      {"measurement": "relative viability", "setting": "[4]; first compound 8 µM", "value": 0.742}
    ]},
    {"cell line": "NCI-H1975", "values": [
      {"measurement": "relative viability", "setting": "[1]; first compound 0.08 µM", "value": 0.26},
      {"measurement": "relative viability", "setting": "[1]; first compound 0.253 µM", "value": 0.187},
      {"measurement": "relative viability", "setting": "[1]; first compound 0.8 µM", "value": 0.276},
      {"measurement": "relative viability", "setting": "[1]; first compound 2.53 µM", "value": 0.221},
      {"measurement": "relative viability", "setting": "[1]; first compound 8 µM", "value": 0.215},
      {"measurement": "relative viability", "setting": "[2]; first compound 0.08 µM", "value": 0.396},
      {"measurement": "relative viability", "setting": "[2]; first compound 0.253 µM", "value": 0.355},
      {"measurement": "relative viability", "setting": "[2]; first compound 0.8 µM", "value": 0.344},
      {"measurement": "relative viability", "setting": "[2]; first compound 2.53 µM", "value": 0.388},
      {"measurement": "relative viability", "setting": "[2]; first compound 8 µM", "value": 0.319},
      {"measurement": "relative viability", "setting": "[3]; first compound 0.08 µM", "value": 0.373},
      {"measurement": "relative viability", "setting": "[3]; first compound 0.253 µM", "value": 0.462},
      {"measurement": "relative viability", "setting": "[3]; first compound 0.8 µM", "value": 0.404},
      {"measurement": "relative viability", "setting": "[3]; first compound 2.53 µM", "value": 0.336},
      {"measurement": "relative viability", "setting": "[3]; first compound 8 µM", "value": 0.336},
      {"measurement": "relative viability", "setting": "[4]; first compound 0.08 µM", "value": 1.16},
      {"measurement": "relative viability", "setting": "[4]; first compound 0.253 µM", "value": 1.04},
      {"measurement": "relative viability", "setting": "[4]; first compound 0.8 µM", "value": 1.13},
      {"measurement": "relative viability", "setting": "[4]; first compound 2.53 µM", "value": 1.11},
      {"measurement": "relative viability", "setting": "[4]; first compound 8 µM", "value": 1.09}
    ]},
    {"cell line": "NCI-H1993", "values": [
      {"measurement": "relative viability", "setting": "[1]; first compound 0.08 µM", "value": 0.872},
      {"measurement": "relative viability", "setting": "[1]; first compound 0.253 µM", "value": 1.02},
      {"measurement": "relative viability", "setting": "[1]; first compound 0.8 µM", "value": 0.705},
      {"measurement": "relative viability", "setting": "[1]; first compound 2.53 µM", "value": 0.736},
      {"measurement": "relative viability", "setting": "[1]; first compound 8 µM", "value": 0.533},
      {"measurement": "relative viability", "setting": "[2]; first compound 0.08 µM", "value": 0.767},
      {"measurement": "relative viability", "setting": "[2]; first compound 0.253 µM", "value": 0.621},
      {"measurement": "relative viability", "setting": "[2]; first compound 0.8 µM", "value": 0.521},
      {"measurement": "relative viability", "setting": "[2]; first compound 2.53 µM", "value": 0.553},
      {"measurement": "relative viability", "setting": "[2]; first compound 8 µM", "value": 0.568},
      {"measurement": "relative viability", "setting": "[3]; first compound 0.08 µM", "value": 1.04},
      {"measurement": "relative viability", "setting": "[3]; first compound 0.253 µM", "value": 1.29},
      {"measurement": "relative viability", "setting": "[3]; first compound 0.8 µM", "value": 1.06},
      {"measurement": "relative viability", "setting": "[3]; first compound 2.53 µM", "value": 1.01},
      {"measurement": "relative viability", "setting": "[3]; first compound 8 µM", "value": 0.858},
      {"measurement": "relative viability", "setting": "[4]; first compound 0.08 µM", "value": 1.15},
      {"measurement": "relative viability", "setting": "[4]; first compound 0.253 µM", "value": 0.96},
      {"measurement": "relative viability", "setting": "[4]; first compound 0.8 µM", "value": 0.855},
      {"measurement": "relative viability", "setting": "[4]; first compound 2.53 µM", "value": 0.731},
      {"measurement": "relative viability", "setting": "[4]; first compound 8 µM", "value": 0.681}
    ]}
  ]
}
